This is an account of results in paper PMC5673308, “Two single-point mutations shift the ligand selectivity of a pheromone receptor between two closely related moth species” (eLife, 2017).

Assay in all cases: two-electrode voltage clamp, Xenopus oocytes
Holding throughout (assay type): cell-based
What all share (settings): holding potential −80 mV, pH 7.5, agonist

Experiment [1] deals with T1, HarmOr14b/HarmOrco (Helicoverpa armigera, UniProt R4JUU3).
T1 construct: gene OR14b; full-length Or14b, pCS2+ vector, cRNA co-injected with Orco in Xenopus laevis oocytes; with Odorant receptor coreceptor
T1 sequence (R4JUU3 1-440): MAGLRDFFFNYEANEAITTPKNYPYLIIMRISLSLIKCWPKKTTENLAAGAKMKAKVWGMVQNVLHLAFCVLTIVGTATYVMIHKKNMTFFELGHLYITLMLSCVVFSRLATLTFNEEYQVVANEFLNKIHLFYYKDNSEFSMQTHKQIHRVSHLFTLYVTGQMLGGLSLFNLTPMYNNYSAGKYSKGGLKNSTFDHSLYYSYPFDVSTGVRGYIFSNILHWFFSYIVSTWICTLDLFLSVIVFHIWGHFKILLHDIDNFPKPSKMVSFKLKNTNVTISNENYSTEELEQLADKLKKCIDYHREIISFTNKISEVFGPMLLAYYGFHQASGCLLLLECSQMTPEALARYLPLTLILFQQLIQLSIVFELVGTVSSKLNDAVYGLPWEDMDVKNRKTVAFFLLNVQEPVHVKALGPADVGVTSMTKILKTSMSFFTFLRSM
T1 sequence (A0A075TD45 1-473 partner): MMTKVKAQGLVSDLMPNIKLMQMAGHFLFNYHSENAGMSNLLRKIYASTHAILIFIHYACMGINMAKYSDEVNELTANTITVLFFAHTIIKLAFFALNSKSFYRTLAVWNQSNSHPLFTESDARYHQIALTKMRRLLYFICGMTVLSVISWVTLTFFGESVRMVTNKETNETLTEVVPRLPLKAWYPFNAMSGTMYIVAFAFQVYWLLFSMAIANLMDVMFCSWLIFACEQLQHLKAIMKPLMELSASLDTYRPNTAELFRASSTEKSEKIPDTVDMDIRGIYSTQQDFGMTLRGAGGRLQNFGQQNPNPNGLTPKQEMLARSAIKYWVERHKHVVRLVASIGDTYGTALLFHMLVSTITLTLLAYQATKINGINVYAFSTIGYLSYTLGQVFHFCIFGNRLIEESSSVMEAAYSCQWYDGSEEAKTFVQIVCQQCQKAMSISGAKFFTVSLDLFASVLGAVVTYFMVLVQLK

Experiment [2] has as its target T2, HassOr16/HassOrco (Helicoverpa assulta, UniProt C6K7C1).
T2 construct: full-length Or16, pCS2+ vector, cRNA co-injected with Orco in Xenopus laevis oocytes; with Odorant receptor coreceptor
T2 sequence (C6K7C1 1-422): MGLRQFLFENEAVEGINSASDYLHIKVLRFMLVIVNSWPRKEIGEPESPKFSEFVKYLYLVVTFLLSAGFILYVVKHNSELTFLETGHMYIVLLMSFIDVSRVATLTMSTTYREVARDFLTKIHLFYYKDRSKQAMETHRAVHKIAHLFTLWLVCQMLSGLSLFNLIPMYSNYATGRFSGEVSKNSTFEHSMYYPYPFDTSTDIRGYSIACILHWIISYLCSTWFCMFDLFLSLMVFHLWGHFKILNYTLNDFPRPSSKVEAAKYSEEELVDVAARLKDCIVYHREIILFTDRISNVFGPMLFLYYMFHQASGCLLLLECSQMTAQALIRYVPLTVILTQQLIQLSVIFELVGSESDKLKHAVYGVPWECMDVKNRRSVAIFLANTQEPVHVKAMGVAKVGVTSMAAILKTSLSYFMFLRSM
T2 sequence (A7UGE1 1-473 partner): T1 sequence (A0A075TD45 1-473 partner) with F55V

Experiment [3] addresses T3, HassOr6/HassOrco (Helicoverpa assulta, UniProt R4JLZ7).
T3 construct: gene OR6; full-length Or6, pCS2+ vector, cRNA co-injected with Orco in Xenopus laevis oocytes; with Odorant receptor coreceptor
T3 sequence (R4JLZ7 1-425): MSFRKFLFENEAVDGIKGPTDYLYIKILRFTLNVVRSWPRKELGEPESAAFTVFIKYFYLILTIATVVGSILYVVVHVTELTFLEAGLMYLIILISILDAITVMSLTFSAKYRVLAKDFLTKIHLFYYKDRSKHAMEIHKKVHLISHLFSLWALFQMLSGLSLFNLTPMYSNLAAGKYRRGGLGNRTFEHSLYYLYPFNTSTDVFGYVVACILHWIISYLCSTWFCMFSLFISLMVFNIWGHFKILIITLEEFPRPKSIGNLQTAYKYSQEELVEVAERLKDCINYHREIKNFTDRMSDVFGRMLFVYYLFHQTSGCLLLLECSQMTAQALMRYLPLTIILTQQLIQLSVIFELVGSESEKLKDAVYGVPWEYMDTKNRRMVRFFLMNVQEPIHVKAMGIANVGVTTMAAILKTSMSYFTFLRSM
T3 sequence (A7UGE1 1-473 partner): T1 sequence (A0A075TD45 1-473 partner) with F55V

Residue numbers refer to the chain shown, from its start.

For the molecule `CCCC/C=C\CCCCCCCC=O` [Z9-14:Ald, (Z)−9-tetradecenal], the “inward current at 10^-4 M” value in experiment [1] was “HarmOr14b is specifically tuned to Z9-14:Ald”; in experiment [2], “HassOr16 is specific for Z9-14:Ald”.
Take `CCCCCC/C=C\CCCCCCCC=O` [Z9-16:Ald, (Z)−9-hexadecenal]: the “inward current at 10^-4 M” value in experiment [1] is “HarmOr14b is specifically tuned to Z9-14:Ald, and also weakly responds to Z9-16:Ald”.
Take `CCCCCC/C=C\CCCCCCCCO` [Z9-16:OH, (Z)−9-hexadecenol]: the “inward current at 10^-4 M” value in experiment [3] is on record as “HassOr6 is mainly tuned to Z9-16:OH”.
